pIC50: −log10 of the molar value. Each block holds one molecule with its values, some of them ahead of it.
Molecular target: MAPK14 (human) (UniProt Q16539)
Test: Inhibition of LPS Stimulated TNF Production by U937 Cells
Conditions: for inhibition: concentration not given here

Sequence of MAPK14 (human) (Q16539 whole entry, looked up): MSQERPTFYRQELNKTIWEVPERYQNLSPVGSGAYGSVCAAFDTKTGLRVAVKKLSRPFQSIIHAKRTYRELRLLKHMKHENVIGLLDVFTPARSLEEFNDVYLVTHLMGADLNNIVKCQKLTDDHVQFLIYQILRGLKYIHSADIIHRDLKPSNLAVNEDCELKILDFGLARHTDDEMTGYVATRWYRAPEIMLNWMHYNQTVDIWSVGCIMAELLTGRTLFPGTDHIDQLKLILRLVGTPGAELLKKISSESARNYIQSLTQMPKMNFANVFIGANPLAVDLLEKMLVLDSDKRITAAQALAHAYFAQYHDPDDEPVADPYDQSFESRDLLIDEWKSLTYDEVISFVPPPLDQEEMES

inhibition: 100%
Compound: O=C(NCc1[nH]nc(-c2ccc(F)cc2)c1-c1ccncc1)c1ccc([N+](=O)[O-])o1

pIC50: 6.61
Compound: Cc1[nH]nc(-c2ccc(Br)cc2)c1-c1ccncc1

inhibition: 37%
Compound: C[C@@H](NC(=O)c1cccc(C#N)c1)c1[nH]nc(-c2ccc(F)cc2)c1-c1ccncc1

inhibition: 63%
Compound: CCN(CC)C(=O)N[C@@H](C)c1[nH]nc(-c2ccc(F)cc2)c1-c1ccncc1

inhibition: 63%
Compound: C[C@@H](NC(=O)c1ccc(C(F)(F)F)cc1)c1[nH]nc(-c2ccc(F)cc2)c1-c1ccncc1

inhibition: 58%
Compound: O=S(=O)(NCc1[nH]nc(-c2ccc(F)cc2)c1-c1ccncc1)c1cc(S(=O)(=O)c2ccccc2)cs1

pIC50: < 6.00
Compound: CCNC(=O)N[C@@H](CCC(=O)NC)c1[nH]nc(-c2ccc(F)cc2)c1-c1ccncc1

pIC50: < 6.00
Compound: CC(C)(C)c1ccc(S(=O)(=O)NCc2[nH]nc(-c3ccc(F)cc3)c2-c2ccncc2)cc1

pIC50: 6.52
Compound: Cc1cccc(-c2n[nH]cc2-c2ccnc(C)c2)c1

inhibition: 52%
Compound: C[C@@H](NC(=O)c1cc(F)cc(C(F)(F)F)c1)c1[nH]nc(-c2ccc(F)cc2)c1-c1ccncc1

pIC50: > 6.00
Compound: CN(C(=O)N[C@@H](Cc1ccccc1)c1[nH]nc(-c2ccc(F)cc2)c1-c1ccncc1)c1ccccc1

inhibition: 79%
Compound: C[C@H](NS(=O)(=O)c1cc(Cl)c(Cl)s1)c1[nH]nc(-c2ccc(F)cc2)c1-c1ccncc1

inhibition: 54%
Compound: CC(C)OC(=O)NCc1[nH]nc(-c2ccc(F)cc2)c1-c1ccncc1

pIC50: 7.30
Compound: C[C@@H](NS(=O)(=O)Cc1ccccc1)c1[nH]nc(-c2ccc(F)cc2)c1-c1ccncc1

inhibition: 32%
Compound: C[C@@H](NC(=O)C(C)(C)C)c1[nH]nc(-c2ccc(F)cc2)c1-c1ccncc1

pIC50: 5.57
Compound: Cc1nn(C)c(-c2ccc(Cl)cc2)c1-c1ccncc1

inhibition: 21%
Compound: C[C@H](NC(=O)c1cccs1)c1[nH]nc(-c2ccc(F)cc2)c1-c1ccncc1

inhibition: 55%
Compound: C[C@@H](NS(=O)(=O)c1ccc(F)cc1F)c1[nH]nc(-c2ccc(F)cc2)c1-c1ccncc1

inhibition: 75%
Compound: C[C@@H](NS(=O)(=O)c1cc(Cl)c(Cl)s1)c1[nH]nc(-c2ccc(F)cc2)c1-c1ccncc1

inhibition: 18%
Compound: CN(C)c1cccc2c(S(=O)(=O)N3CCC(c4[nH]nc(-c5ccc(F)cc5)c4-c4ccncc4)CC3)cccc12

inhibition: 31%
Compound: O=S(=O)(c1ccc(C(F)(F)F)cc1)N1CCC(c2[nH]nc(-c3ccc(F)cc3)c2-c2ccncc2)CC1

Further lines, the molecule ahead of its results:

Compound: Cc1cnccc1-c1c[nH]nc1-c1ccc(F)cc1
pIC50: 5.92

Compound: CS(=O)(=O)c1ccc(CNC(=O)NCCCc2[nH]nc(-c3ccc(F)cc3)c2-c2ccncc2)cc1
pIC50: < 6.00

Compound: CCc1n[nH]c(-c2ccccc2)c1-c1ccncc1
pIC50: 6.61

Compound: Cc1ccccc1C(=O)N[C@H](C)c1[nH]nc(-c2ccc(F)cc2)c1-c1ccncc1
inhibition: 42%

Compound: C[C@@H](NC(=O)NCCc1[nH]nc(-c2ccc(F)cc2)c1-c1ccncc1)c1ccccc1
pIC50: 5.30
inhibition: 25%

Compound: Cc1ccc(S(=O)(=O)N2CCC(c3[nH]nc(-c4ccc(F)cc4)c3-c3ccncc3)CC2)cc1
inhibition: 14%

Compound: C[C@H](NC(=O)c1cccc(F)c1)c1[nH]nc(-c2ccc(F)cc2)c1-c1ccncc1
inhibition: 21%

Compound: O=C(NCCCc1[nH]nc(-c2ccc(F)cc2)c1-c1ccncc1)NCCCN1CCCC1
inhibition: 1%

Compound: C[C@@H](NC(=O)[C@H]1CCCN1)c1[nH]nc(-c2ccc(F)cc2)c1-c1ccncc1
inhibition: 39%

Compound: COc1cccc(CC(=O)N[C@@H](C)c2[nH]nc(-c3ccc(F)cc3)c2-c2ccncc2)c1
inhibition: 14%

Compound: O=S(=O)(c1cccc(Cl)c1)N1CCC(c2[nH]nc(-c3ccc(F)cc3)c2-c2ccncc2)CC1
inhibition: 31%

Compound: COc1cc(NC(=O)NCc2[nH]nc(-c3ccc(F)cc3)c2-c2ccncc2)cc(OC)c1OC
inhibition: 29%

Compound: O=C(NCc1[nH]nc(-c2ccc(F)cc2)c1-c1ccncc1)c1ccc(Cl)c(Cl)c1
inhibition: 31%

Compound: CCN(CC)CCn1cc(-c2ccnc(F)c2)c(-c2ccc(F)cc2)n1
pIC50: 5.64

Compound: C[C@H](NC(=O)c1cccc(Cl)c1)c1[nH]nc(-c2ccc(F)cc2)c1-c1ccncc1
inhibition: 39%

Compound: CC(=O)NCCNC(=O)NCCCc1[nH]nc(-c2ccc(F)cc2)c1-c1ccncc1
inhibition: 9%

Compound: Cn1cnc(S(=O)(=O)NCc2[nH]nc(-c3ccc(F)cc3)c2-c2ccncc2)c1
inhibition: 24%

Compound: C[C@@H](NS(=O)(=O)c1cccc(C(F)(F)F)c1)c1[nH]nc(-c2ccc(F)cc2)c1-c1ccncc1
inhibition: 97%

Compound: O=C(NCCc1ccccc1)NCc1[nH]nc(-c2ccc(F)cc2)c1-c1ccncc1
inhibition: 9%

Compound: C[C@@H](NC(=O)c1cccc(F)c1)c1[nH]nc(-c2ccc(F)cc2)c1-c1ccncc1
inhibition: 52%

Compound: CNC(=O)CC[C@H](NC(=O)c1cccc(Br)c1)c1[nH]nc(-c2ccc(F)cc2)c1-c1ccncc1
pIC50: < 6.00

Compound: CCc1ccc(S(=O)(=O)N[C@@H](C)c2[nH]nc(-c3ccc(F)cc3)c2-c2ccncc2)cc1
inhibition: 92%

Compound: Fc1cc(-c2c[nH]nc2-c2ccc(F)c(F)c2)ccn1
pIC50: 6.29

Compound: O=C(N[C@H](Cc1ccccc1)c1[nH]nc(-c2ccc(F)cc2)c1-c1ccncc1)c1cccc(Br)c1
pIC50: < 6.00

Compound: O=S(=O)(NCCCc1[nH]nc(-c2ccc(F)cc2)c1-c1ccncc1)c1cccc(C(F)(F)F)c1
inhibition: 11%

Compound: CC(C)NC(=O)NCc1[nH]nc(-c2ccc(F)cc2)c1-c1ccncc1
pIC50: 5.00

Compound: CC(C)COC(=O)N[C@H](C)c1[nH]nc(-c2ccc(F)cc2)c1-c1ccncc1
inhibition: 32%

Compound: C[C@H](NS(=O)(=O)c1ccc(C#N)cc1)c1[nH]nc(-c2ccc(F)cc2)c1-c1ccncc1
inhibition: 95%

Compound: CN(C)CCCNc1n[nH]c(-c2ccc(F)cc2)c1-c1ccncc1
pIC50: 6.57

Compound: O=C(N[C@H](Cc1ccccc1)c1[nH]nc(-c2ccc(F)cc2)c1-c1ccncc1)c1ccncc1
inhibition: 25%

Compound: Cc1c(-c2ccncc2)c(-c2ccc(F)cc2)nn1CC(=O)N[C@H](C)c1cccc2ccccc12
inhibition: 23%

Compound: C[C@@H](NS(C)(=O)=O)c1[nH]nc(-c2ccc(F)cc2)c1-c1ccncc1
pIC50: 6.36

Compound: COc1ccc(NC(=O)N[C@H](C)c2[nH]nc(-c3ccc(F)cc3)c2-c2ccncc2)c(OC)c1
inhibition: 40%

Compound: C[C@@H](NC(=O)N1CCCC1)c1[nH]nc(-c2ccc(F)cc2)c1-c1ccncc1
inhibition: 48%

Compound: O=C(N[C@H](Cc1ccccc1)c1[nH]nc(-c2ccc(F)cc2)c1-c1ccncc1)c1cccnc1
inhibition: 38%

Compound: Cc1onc(-c2ccccc2Cl)c1C(=O)NCc1[nH]nc(-c2ccc(F)cc2)c1-c1ccncc1
inhibition: 21%

Compound: Cn1cc(-c2ccnc(F)c2)c(-c2ccc(F)cc2)n1
pIC50: 6.34

Compound: CN(C)c1ccc(CNC(=O)NCCCc2[nH]nc(-c3ccc(F)cc3)c2-c2ccncc2)cc1
inhibition: 15%

Compound: C[C@@H](NS(=O)(=O)c1ccccc1Cl)c1[nH]nc(-c2ccc(F)cc2)c1-c1ccncc1
inhibition: 95%

Compound: Cc1noc(C)c1C(=O)N[C@H](C)c1[nH]nc(-c2ccc(F)cc2)c1-c1ccncc1
inhibition: 73%

Compound: Cc1cccc(Cl)c1S(=O)(=O)N[C@@H](C)c1[nH]nc(-c2ccc(F)cc2)c1-c1ccncc1
inhibition: 89%

Compound: C[C@@H](NC(=O)c1ccc(I)cc1)c1[nH]nc(-c2ccc(F)cc2)c1-c1ccncc1
inhibition: 25%

Compound: C[C@@H](NS(=O)(=O)c1cc(Cl)cc(Cl)c1)c1[nH]nc(-c2ccc(F)cc2)c1-c1ccncc1
inhibition: 91%

Compound: CNC(=O)CC[C@H](NC(=O)c1ccc(C)cc1)c1[nH]nc(-c2ccc(F)cc2)c1-c1ccncc1
pIC50: < 6.00
